# Data: paper PMC9008208 (Frontiers in Cellular Neuroscience, 2022)
# Key:
# [1] = target: T1, α9α10 nAChR (Homo sapiens, UniProt Q9GZZ6+Q9UGM1); assay: two-electrode voltage clamp, Xenopus oocytes, concentration-response (partial agonist); format: cell-based
# T1 construct: gene CHRNA9; with nAChR subunit α10 (CHRNA10)
# [2] = target: T2, α9 nAChR (Homo sapiens, UniProt Q9UGM1); assay: as above; format: cell-based
# T2 construct: gene CHRNA9
# T2 sequence (Q9UGM1 23-479): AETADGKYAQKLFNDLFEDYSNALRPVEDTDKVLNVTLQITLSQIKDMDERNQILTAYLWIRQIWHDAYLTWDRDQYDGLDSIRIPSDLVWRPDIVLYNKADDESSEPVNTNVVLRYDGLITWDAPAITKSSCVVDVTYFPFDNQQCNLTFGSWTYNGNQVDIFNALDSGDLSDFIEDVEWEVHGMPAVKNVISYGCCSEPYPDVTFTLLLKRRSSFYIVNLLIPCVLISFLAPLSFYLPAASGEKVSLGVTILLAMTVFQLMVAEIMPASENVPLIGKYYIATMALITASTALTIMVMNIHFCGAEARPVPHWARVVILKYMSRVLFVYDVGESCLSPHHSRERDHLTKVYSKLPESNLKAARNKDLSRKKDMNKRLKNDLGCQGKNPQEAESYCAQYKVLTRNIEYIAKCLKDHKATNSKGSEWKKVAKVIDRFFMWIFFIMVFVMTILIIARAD
# T1 sequence (Q9UGM1 23-479): as above
# T1 sequence (Q9GZZ6 25-450): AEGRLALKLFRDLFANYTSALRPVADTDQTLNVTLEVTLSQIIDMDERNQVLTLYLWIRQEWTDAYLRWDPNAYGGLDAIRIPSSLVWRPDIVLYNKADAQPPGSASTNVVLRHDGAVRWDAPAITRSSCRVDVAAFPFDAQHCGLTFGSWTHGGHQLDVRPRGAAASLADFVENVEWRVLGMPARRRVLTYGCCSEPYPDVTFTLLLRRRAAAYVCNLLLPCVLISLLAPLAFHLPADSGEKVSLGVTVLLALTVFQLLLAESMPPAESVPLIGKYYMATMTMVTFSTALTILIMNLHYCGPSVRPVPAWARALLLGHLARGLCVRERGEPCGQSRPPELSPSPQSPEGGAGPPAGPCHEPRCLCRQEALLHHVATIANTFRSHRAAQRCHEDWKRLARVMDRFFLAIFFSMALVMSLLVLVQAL
compound,measurement,setting,value
CC[N+]1(CC)CCN(c2ccc(C(F)(F)F)cc2)CC1 [pCF3-diEPP],EC50,[1],6.4 µM
same,EC50,[2],7 µM
